Assays:
[1] = test system: primary polyclonal rabbit anti-OXT IgG (Cayman Chemical Company OXT EIA, secondary monoclonal mouse anti-rabbit IgG); assay: OXT EIA cross-reactivity, Cayman Chemical Company kit; assay type: binding
[2] = Reversed phase SPE of OXT from pure solution; assay type: physicochemical; conditions: 200 pg/ml pure OXT solution, 0.1% TFA-H2O, separate C-18 column elutions, Enzo Life Sciences EIA
[3] = same ultrafiltration columns, cited from earlier work
[4] = test system: primary polyclonal rabbit anti-OXT IgG (Enzo Life Sciences OXT EIA, secondary polyclonal goat anti-rabbit IgG); conditions: competitive EIA; published IC50; ref manufacturer (Enzo Life Sciences); cited from earlier work
[5] = test system: primary polyclonal rabbit anti-OXT IgG (Cayman Chemical Company OXT EIA, secondary monoclonal mouse anti-rabbit IgG); conditions: competitive EIA; ref manufacturer (Cayman Chemical Company); cited from earlier work

Question: Which “cross-reactivity (IC50(OXT)/IC50(interfering protein))” value (“cross-reactivity” below) [1] does the source give for Immunoglobulin G here?
Answer: Its value is less than 0.01%.

Question: For Immunoglobulin M, which “cross-reactivity” value [1] is on record?
Answer: Its value is less than 0.01%.

Question: Which “cross-reactivity” value [1] does the source give for Transferrin here?
Answer: The value was less than 0.01%.

Question: Which “OXT recovered in the eluate, reversed phase SPE” value ([2]; 30–40% ACN range, CV for three columns 30.8–136.5%) does the source give for oxytocin [OXT] here?
Answer: The value was 10.1–49.1%.

Question: What about the “total amount of OXT measured in all fractions (load, wash, eluate) as % of the original sample” value [2] of the same substance?
Answer: Its value is 37.1–92.2%.

Question: What about the “OXT recovery rate from plasma, ultrafiltration” value ([3]; plasma) of the same substance?
Answer: Its value is 91.8%.

Question: What about the “OXT recovery rate from saliva, ultrafiltration” value ([3]; saliva) of the same substance?
Answer: The value was 68.4%.

Question: What about the “IC50 of the Enzo Life Sciences OXT assay” value [4] of the same substance?
Answer: Its value is 0.228 ng/mL.

Question: And the “mean IC50 of the Cayman Chemical Company OXT assay” value [5]?
Answer: The value was 0.08 ng/mL.
